# From patent US8778937B2, “Benzimidazole boronic acid derivatives as PI3 kinase inhibitors” (GlaxoSmithKline LLC, priority 2011, dated 2014)
# What was measured:
# PI3Kβ = target: T1, PI3Kβ (Homo sapiens, UniProt P42338); experiment: HTRF in vitro profiling assay for PI3K inhibition (beta isoform); type: biochemical; details: 200 pM enzyme, 100 uM ATP, 10 uM PIP2, 150 mM NaCl, corrected pIC50, single run or average of two or more runs, read-out: PI3K b pIC50 (converted)
# T1 construct: made in house
# Description: Compounds of the present invention were tested according to the following assays and found as inhibitors of PI3 kinases, particularly PI3Kβ. […] The IC50 value can be converted and presented as pIC50 value.
# HTRF In Vitro Profiling Assays for PI3K Inhibition
# The PI3-Kinase profiling assays were developed to measure the compound-dependent inhibition of the alpha, beta, delta, and gamma isoforms of PI3K in an in vitro catalytic assay. This assay was developed and optimized from a kit produced by Upstate (Millipore catalog #33-017). Briefly, this procedure utilizes a pre-formed HTRF (Homogeneous Time-Resolved Fluorescence energy transfer) complex between four binding partners: 1) biotinylated PIP3, 2) GST tagged pleckstrin homology (PH) domain, 3) Europium labeled anti-GST monoclonal antibody, and 4) Streptavidin-Allophycocyanin (APC). The native PIP3 produced by PI 3-Kinase activity displaces biotin-PIP3 from the PH domain, resulting in the dissociation of the HTRF complex and a decrease in the fluorescence signal. The format of this assay is the same for all 4 isoforms of PI3K; the differences lie in the concentration of enzyme used to achieve the most robust signal. The alpha and delta assays are run at 400 pM enzyme; the beta assay is at 200 pM enzyme and the gamma assay is run at 1 nM enzyme. In addition, the alpha, beta and delta assays are run with 150 mM NaCl while the gamma assay is run in the absence of NaCl. The ATP concentration is 100 uM in the alpha, beta, and delta assays and 15 uM ATP in the gamma assay. All reactions are run at 10 uM PIP2
# Compounds were serially diluted (3-fold in 100% DMSO) across a 384-well polypropylene mother plate from column 1 to column 12 and column 13 to column 24, to yield 11 concentrations for each test compound. Columns 6 and 18 contain only DMSO. Once titrations were made, 0.05 μL was transferred to a 384-well low-volume assay plate (Greiner 784076). This assay plate contained three pharmacological controls (known PI3K inhibitors) and 3 assay controls: (1) Enzyme without inhibitor; (2) Buffer minus enzyme, and (3) Buffer minus enzyme plus native PIP3. DMSO was stamped into all wells of columns 6 and 18. PIP3 was added at 40 μM in 1× Reaction buffer (1 μL of 200 μM PIP3) to alternating rows of column 18 (wells 18 B, D, F, H, J, L, N, P). The no-enzyme control reactions were run in wells 18 A, C, E, G, I, K, M, O (0.1 μL of 100% DMSO).
# The PI3-Kinase profiling assay was optimized using the HTRF kit provided by Upstate (Millipore). The assay kit contained seven reagents: 1) 4× Reaction Buffer; 2) native PIP2 (substrate); 3) Stop A (EDTA); 4) Stop B (Biotin-PIP3); 5) Detection Mix A (Streptavidin-APC); 6) Detection Mix B (Eu-labeled Anti-GST plus GST-tagged PH-domain); 7) Detection Mix C (KF). In addition, the following items were obtained or purchased: PI3Kinase (prepared by GSK BR&AD), dithiothreitol (Sigma, D-5545), Adenosine-5′-triphosphate (ATP, Teknova cat. # A0220), native PIP3 (1,2-dioctanoyl-sn-glycero-3-[phosphoinositil-3,4,5-triphosphate]tetraammonium salt (Avanti polar lipids, 850186P), DMSO (Sigma, 472301).
# PI3Kinase Reaction Buffer was prepared by diluting the stock 1:4 with de-ionized water. Freshly prepared DTT was added at a final concentration of 5 mM on the day of use. Enzyme addition and compound pre-incubation were initiated by the addition of 2.5 μL of PI3K (at twice its final concentration) in 1× reaction buffer to all wells using a Multidrop Combi. Plates were incubated at room temperature for 15 minutes. Reactions were initiated by addition of 2.5 μL of 2× substrate solution (PIP2 and ATP in 1× reaction buffer) using a Multidrop Combi. Plates were incubated at room temperature for one hour. Reactions were quenched by the addition of 2.5 μL of stop solution (Stop A and Stop B pre-mixed at a ratio of 5:1, respectively) to all wells using the Multidrop Combi. […]
# [1] = tested on: phosphorylation of AKT in MDA-MB-468 tumor cells; experiment: Inhibition of phosphorylation of AKT (Ser473, MSD) in PTEN deficient tumor cell line MDA-MB-468; type: cell-based; details: Homo sapiens, 0.5 h; MDA-MB-468 cells, 30 minutes compound treatment, Ser473-pAKT normalized to total AKT
# Description: Cellular Assays—Inhibition of Phosphorylation of AKT in PTEN Deficient Tumor Cell Line MDA-MB-468
# Compounds were evaluated for their ability to inhibit downstream phosphorylation of AKT in MDA-MB-468 tumor cells. Breast cancer cells were plated, incubated for approximately 16-20 hours and then treated with compound for 30 minutes. Final DMSO concentration on all cells was 0.15%. The cells were washed with Tris buffer and lysed in MesoScale Discovery (MSD) lysis buffer containing protease and phosphatase inhibitors (included in MSD kit). MSD Ser473-AKT duplex plates (Cat # MS6000) were used according to the manufacturer's instructions and plates were read on a SECTOR™ Imager 6000 using MSD Workbench software. For analysis of the Ser473-pAKT concentration response curves, the data was normalized using the corresponding total AKT value (sum of pAKT and AKT signal) and plotted as the percent of the DMSO-treated control values. The data was fit in Graphpad Prism version 4 for Windows (Graphpad Software, San Diego, Calif.).
# The compounds listed in Table 2 were tested generally according to the assays described herein. Table 2 lists the IC50 values for either an experimental run or an average of two or more experimental runs with the examples shown.
# T1 sequence (P42338 whole entry, canonical isoform): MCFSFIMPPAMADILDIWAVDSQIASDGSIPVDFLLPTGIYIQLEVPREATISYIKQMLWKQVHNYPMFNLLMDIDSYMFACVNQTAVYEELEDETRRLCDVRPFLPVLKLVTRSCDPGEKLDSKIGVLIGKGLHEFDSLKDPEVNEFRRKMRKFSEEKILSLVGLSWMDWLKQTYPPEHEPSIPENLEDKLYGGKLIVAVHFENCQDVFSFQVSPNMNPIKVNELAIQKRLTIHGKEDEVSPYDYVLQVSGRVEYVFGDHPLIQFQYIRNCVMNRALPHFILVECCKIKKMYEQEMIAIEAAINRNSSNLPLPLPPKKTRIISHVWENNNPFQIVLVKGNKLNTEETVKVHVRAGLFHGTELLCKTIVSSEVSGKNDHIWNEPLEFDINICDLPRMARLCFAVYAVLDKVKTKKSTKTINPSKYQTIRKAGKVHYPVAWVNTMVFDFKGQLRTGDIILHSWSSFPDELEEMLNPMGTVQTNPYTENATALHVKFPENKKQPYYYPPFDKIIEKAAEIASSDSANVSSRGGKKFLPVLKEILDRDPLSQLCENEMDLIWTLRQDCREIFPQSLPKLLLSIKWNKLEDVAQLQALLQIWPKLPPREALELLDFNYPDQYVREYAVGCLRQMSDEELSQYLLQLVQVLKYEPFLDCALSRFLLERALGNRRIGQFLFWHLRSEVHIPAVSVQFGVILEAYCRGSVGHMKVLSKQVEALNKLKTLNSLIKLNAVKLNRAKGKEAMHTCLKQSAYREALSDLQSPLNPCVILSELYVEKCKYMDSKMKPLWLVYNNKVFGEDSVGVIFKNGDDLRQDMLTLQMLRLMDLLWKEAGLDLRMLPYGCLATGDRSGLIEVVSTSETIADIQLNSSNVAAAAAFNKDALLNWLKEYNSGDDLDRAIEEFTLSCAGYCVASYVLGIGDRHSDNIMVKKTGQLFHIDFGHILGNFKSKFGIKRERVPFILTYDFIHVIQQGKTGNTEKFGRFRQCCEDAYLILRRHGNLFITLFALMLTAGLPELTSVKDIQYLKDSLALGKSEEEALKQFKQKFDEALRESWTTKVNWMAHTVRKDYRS
# T1 sequence (P27986 whole entry partner, canonical isoform): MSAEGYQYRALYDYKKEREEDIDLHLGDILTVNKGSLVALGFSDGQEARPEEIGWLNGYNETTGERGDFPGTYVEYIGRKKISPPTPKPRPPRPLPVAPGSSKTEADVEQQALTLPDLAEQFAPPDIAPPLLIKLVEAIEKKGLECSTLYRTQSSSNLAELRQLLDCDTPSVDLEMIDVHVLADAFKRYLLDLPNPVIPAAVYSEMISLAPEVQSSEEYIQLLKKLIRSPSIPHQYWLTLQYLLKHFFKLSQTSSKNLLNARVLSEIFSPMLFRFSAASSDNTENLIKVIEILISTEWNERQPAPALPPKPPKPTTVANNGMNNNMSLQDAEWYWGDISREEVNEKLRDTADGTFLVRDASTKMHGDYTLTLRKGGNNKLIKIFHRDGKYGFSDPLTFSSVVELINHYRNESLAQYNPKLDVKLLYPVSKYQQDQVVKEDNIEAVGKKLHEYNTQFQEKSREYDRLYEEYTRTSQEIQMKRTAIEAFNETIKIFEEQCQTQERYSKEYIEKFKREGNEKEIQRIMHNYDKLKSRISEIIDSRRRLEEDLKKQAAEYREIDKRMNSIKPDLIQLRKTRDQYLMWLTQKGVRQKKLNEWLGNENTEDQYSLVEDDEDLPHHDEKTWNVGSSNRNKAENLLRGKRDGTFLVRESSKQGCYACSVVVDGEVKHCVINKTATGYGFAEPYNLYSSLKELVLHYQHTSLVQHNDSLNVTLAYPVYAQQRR
IC50 (PI3Kβ) [nM],Structure (SMILES),IC50 [1] [nM]
0.0631,"Cc1c(Cn2c(CF)nc3c(B(O)O)cc(N4CCOCC4)cc32)cccc1C(F)(F)F [Example 16, (2-(fluoromethyl)-1-(2-methyl-3-(trifluoromethyl)benzyl)-6-morpholino-1H-benzo[d]imidazol-4-yl)boronic acid]",19.1
0.0631,"Cc1c(Cl)cccc1Cn1c(CF)nc2c(B(O)O)cc(N3CCOCC3)cc21 [Example 17, (1-(3-chloro-2-methylbenzyl)-2-(fluoromethyl)-6-morpholino-1H-benzo[d]imidazol-4-yl)boronic acid]",14.5
0.2,"Cc1c(Cn2c(CO)nc3c(B(O)O)cc(N4CCOCC4)cc32)cccc1C(F)(F)F [Example 18, (2-(hydroxymethyl)-1-(2-methyl-3-(trifluoromethyl)benzyl)-6-morpholino-1H-benzo[d]imidazol-4-yl)boronic acid]",6.35
0.0794,"Cc1c(Cl)cccc1Cn1c(C(F)F)nc2c(B(O)O)cc(N3CCOCC3)cc21 [Example 19, (1-(3-chloro-2-methylbenzyl)-2-(difluoromethyl)-6-morpholino-1H-benzo[d]imidazol-4-yl)boronic acid]",70.9
0.126,"Cc1c(Cn2c(C(F)F)nc3c(B(O)O)cc(N4CCOCC4)cc32)cccc1C(F)(F)F [Example 20, (2-(difluoromethyl)-1-(2-methyl-3-(trifluoromethyl)benzyl)-6-morpholino-1H-benzo[d]imidazol-4-yl)boronic acid]",40.1
0.0794,"Cc1c(Cl)cccc1Cn1c(C(F)(F)F)nc2c(B(O)O)cc(N3CCOCC3)cc21 [Example 21, (1-(3-chloro-2-methylbenzyl)-6-morpholino-2-(trifluoromethyl)-1H-benzo[d]imidazol-4-yl)boronic acid]",92.9
3.16,"Cc1c(Cn2c(C(C)C)nc3c(B(O)O)cc(N4CCOCC4)cc32)cccc1C(F)(F)F [Example 22, (2-isopropyl-1-(2-methyl-3-(trifluoromethyl)benzyl)-6-morpholino-1H-benzo[d]imidazol-4-yl)boronic acid]",74.6
1.26,"Cc1c(Cn2c(C3CC3)nc3c(B(O)O)cc(N4CCOCC4)cc32)cccc1C(F)(F)F [Example 23, (2-cyclopropyl-1-(2-methyl-3-(trifluoromethyl)benzyl)-6-morpholino-1H-benzo[d]imidazol-4-yl)boronic acid]",56.2

# Second part, the compound before the results:
Structure (SMILES),IC50 (PI3Kβ) [nM],IC50 [1] [nM]
"Cc1c(Cn2c(C)nc3c(B(O)O)cc(N4CCOCC4)cc32)cccc1C(F)(F)F [Example 4, (2-methyl-1-(2-methyl-3-(trifluoromethyl)benzyl)-6-morpholino-1H-benzo[d]imidazol-4-yl)boronic acid]",0.398,18.7
"Cc1c(Cl)cccc1Cn1c(C)nc2c(B(O)O)cc(N3CCOCC3)cc21 [Example 5, (1-(3-chloro-2-methylbenzyl)-2-methyl-6-morpholino-1H-benzo[d]imidazol-4-yl)boronic acid]",0.2,8.97
"Cc1nc2c(B(O)O)cc(N3CCOCC3)cc2n1Cc1cccc2ccccc12 [Example 6, (2-methyl-6-morpholino-1-(naphthalen-1-ylmethyl)-1H-benzo[d]imidazol-4-yl)boronic acid]",0.501,78.2
"Cc1cccc(Cn2c(C)nc3c(B(O)O)cc(N4CCOCC4)cc32)c1C [Example 7, (1-(2,3-dimethylbenzyl)-2-methyl-6-morpholino-1H-benzo[d]imidazol-4-yl)boronic acid]",0.501,45.6
"Cc1nc2c(B(O)O)cc(N3CCOCC3)cc2n1Cc1cccc(Cl)c1Cl [Example 8, (1-(2,3-dichlorobenzyl)-2-methyl-6-morpholino-1H-benzo[d]imidazol-4-yl)boronic acid]",0.501,61
Cc1nc2c(B(O)O)cc(N3CCOCC3)cc2n1Cc1cccc2ccsc12 [Example 9],1.26,65.8
"Cc1cccc(Cn2c(C)nc3c(B(O)O)cc(N4CCOCC4)cc32)c1 [Example 10, (2-methyl-1-(3-methylbenzyl)-6-morpholino-1H-benzo[d]imidazol-4-yl)boronic acid]",63.1,672
"Cc1ccccc1Cn1c(C)nc2c(B(O)O)cc(N3CCOCC3)cc21 [Example 11, (2-methyl-1-(2-methylbenzyl)-6-morpholino-1H-benzo[d]imidazol-4-yl)boronic acid]",10,227
"Cc1nc2c(B(O)O)cc(N3CCOCC3)cc2n1Cc1ccccc1Cl [Example 12, (1-(2-chlorobenzyl)-2-methyl-6-morpholino-1H-benzo[d]imidazol-4-yl)boronic acid]",39.8,1490
"Cc1nc2c(B(O)O)cc(N3CCOCC3)cc2n1Cc1cccc(Cl)c1 [Example 13, (1-(3-chlorobenzyl)-2-methyl-6-morpholino-1H-benzo[d]imidazol-4-yl)boronic acid]",63.1,105
"Cc1c(Cn2cnc3c(B(O)O)cc(N4CCOCC4)cc32)cccc1C(F)(F)F [Example 14, (1-(2-methyl-3-(trifluoromethyl)benzyl)-6-morpholino-1H-benzo[d]imidazol-4-yl)boronic acid]",1.58,24.4
"Cc1c(Cl)cccc1Cn1cnc2c(B(O)O)cc(N3CCOCC3)cc21 [Example 15, (1-(3-chloro-2-methylbenzyl)-6-morpholino-1H-benzo[d]imidazol-4-yl)boronic acid]",1.26,7.95
